What was measured:
[1] = test system: mature IL-1β release from human monocytes; test: human monocyte pulse chase assay, inhibition of release of mature IL-1β (called In Vivo Assay); format: cell-based; details: human monocytes stimulated with fixed S. aureus
Procedure: In vivo inhibition (IC50) was determined as follows:
Human monocytes were isolated from heparinized leukopheresis units obtained through Biological Specialty Corporation (Lansdale, Pa.). Monocytes were purified by Ficoll-Hupaque (Pharmacia Fine Chemicals, Piscataway, N.J.) gradient centrifugation and more than 95% pure monocyte populations obtained by centrifugal elutriation. The assay was performed on duplicate samples of freshly isolated human monocytes, cultured in suspension at 37° C. and rotated gently in conical bottom polypropylene tubes (Sardstedt Inc., Princeton, N.J.). Human monocytes at a concentration of 5×10^6 cells/mL were resuspended in 1 mL of RPMI 1640 (a common tissue buffer from M. A. Bioproducts, Walkersville, Md.) containing 1% fetal calf serum (FCS) (HyClone, Logan, Utah) and 50 μg/mL gentamycin (Gibco, Grand Island, N.Y.). The cells were treated either with a compound of the invention (i.e. test compound) or with a non-inhibitor (control compound, typically 0.03% DMSO) for 15 minutes and then activated with 0.01% fixed Staphylococcus aureus (The Enzyme Center, Malden, Mass.) for 1 hour. The cells were then centrifuged and resuspended in 1 mL of cysteine, methionine-free RPMI media containing 1% dialyzed FCS (Hyclone). The cells were pretreated with a test compound or control compound for 15 minutes after which 0.01% fixed S. aureus plus 100 μCi Tran 35-S label (ICN, Irvine, Calif.) was added and the cells incubated at 37° C. for 1 hour. After incubation, cells were centrifuged, washed once in phosphate buffer saline and resuspended in 1 mL RPMI containing 1% fetal calf serum. The cells were again pretreated with a test or control compound for 15 minutes and then 0.01% S. aureus for 2 hours. At the end of the incubation, cells were centrifuged and supernates saved for immunoprecipitation. Cells were washed once in phosphate buffer saline and then lysed in RIPA, a continuous cell media buffer containing 2 mM phenylmethylsulfonyl fluoride, 10 mM iodoacetate, 1 μg/mL pepstatin A, 1 μg/mL leupeptin and 0.5 TIU aprotinin.
For the immunoprecipitations, an equal volume of 1% dry milk in RIPA buffer plus 50 μL of resuspended protein A sepharose CL-4B (Pharmacia, Piscataway, N.Y.) was added to supernates and 1 mL of 4% dry milk containing protein A sepharose CL-4B to cell lysates and samples rotated for 30 minutes at 4° C. Beads were then centrifuged down, samples transferred to fresh tubes and incubated overnight with 40 μg rabbit anti-human IL-1β polyclonal antibody (Genzyme, Cambridge, Mass.). The IL-1β proteins were then precipitated with 70 μL protein A sepharose, resuspended in 60 μL SDS sample buffer and run on 15% SGD-PAGE gels. Autoradiography was performed on dried gels and the amount of radioactivity (counts per minute, cpm) quantitated using a Betascope 603 analyzer.
In the monocyte pulse chase assay, each test parameter was run in duplicate. Data was collected from the Beta Scope using a personal computer, then transferred to the VAX system for calculation of mean cpm and standard deviation of the mean. When test compounds were evaluated, the percent inhibition of release of mature IL-1β was calculated as follows:
100×[1-(cells treated with stimuli+test compound-unstimulated cells)/(cells treated with stimuli+control compound-unstimulated cells)]
These % inhibition values were then used to calculate IC50 value for each compound. Since the human monocyte pulse chase assay uses primary cells from different donors, each test compound was run in 2-3 separate experiments, using monocytes from 2-3 different donors.

ICE (IL-1β protease) = target: T1, ICE (IL-1β protease) (Homo sapiens, UniProt P29466); test: enzyme assay, second order rates of inactivation of ICE; format: biochemical; details: in vitro; read-out: kobs/[I] (IL-1β protease inhibition, second order rate of inactivation)
T1 sequence (P29466 120-297 limits assumed): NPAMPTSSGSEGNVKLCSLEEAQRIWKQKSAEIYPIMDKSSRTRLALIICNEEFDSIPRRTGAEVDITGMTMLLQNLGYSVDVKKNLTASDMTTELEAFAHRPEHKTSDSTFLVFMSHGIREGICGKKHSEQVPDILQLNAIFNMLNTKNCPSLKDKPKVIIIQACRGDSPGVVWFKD
T1 sequence (P29466 317-404 limits assumed): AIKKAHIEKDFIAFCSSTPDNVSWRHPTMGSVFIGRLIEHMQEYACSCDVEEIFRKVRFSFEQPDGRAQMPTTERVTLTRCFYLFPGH
Text: Second order rates of inactivation were obtained by using the enzyme assay described in Dolle, R. E.; et al., J. Med Chem. (1994), 37, 563. […] In the case of these reversible inhibitors, the in vitro assay was modified to obtain the reversible Ki * as follows: […]

IL-1 receptor = details: cited from earlier work

Molecule	IC50 [1]	kinact/KI (ICE (IL-1β protease))	joint swelling and disease activity (IL-1 receptor; after three weeks of daily treatment, subcutaneous)	antiinflammatory activity (IL-1 receptor; patients with active rheumatoid arthritis, subcutaneous 20, 70 and 200 mg)	effectiveness by dosing frequency (IL-1 receptor; subcutaneous 20, 70 and 200 mg)
O=C(O)C[C@H](NC(=O)[C@@H]1CCCN2C(=O)CC[C@H](NC(=O)OCc3ccccc3)C(=O)N12)C(=O)COc1cc(C(F)(F)F)nn1-c1ccccn1 [Example 6]	< 10 µM	> 10000 M⁻¹ s⁻¹			
O=C(O)C[C@H](NC(=O)[C@@H]1CCCN2C(=O)CC[C@H](NC(=O)c3ccc4[nH]cnc4c3)C(=O)N12)C(=O)COC(=O)c1c(Cl)cccc1Cl [Example 16, [9-(5-Benzimidazoylamino)octahydro-6,10-dioxo-6H-pyridazino[1,2a][1,2]diazepine-1-formoyl]-L-aspartic acid 2,6-dichlorobenzoyloxymethyl ketone]	< 10 µM	> 10000 M⁻¹ s⁻¹			
O=C(O)C[C@H](NC(=O)[C@@H]1CCCN2C(=O)CC[C@H](NC(=O)OCc3ccccc3)C(=O)N12)C(=O)COc1cc(C(F)(F)F)nn1-c1ccc(Cl)cn1 [Example 24]	< 10 µM	> 10000 M⁻¹ s⁻¹			
O=C(O)CCc1ccc(C(=O)N[C@H]2CCC(=O)N3CCC[C@@H](C(=O)N[C@@H](CC(=O)O)C(=O)COc4cc(C(F)(F)F)nn4-c4ccc(Cl)cc4)N3C2=O)cc1 [Example 12]	< 10 µM	> 10000 M⁻¹ s⁻¹			
CN(C)Cc1ccc(C(=O)N[C@H]2CCC(=O)N3CCC[C@@H](C(=O)N[C@@H](CC(=O)O)C(=O)COC(=O)c4c(Cl)cccc4Cl)N3C2=O)cc1 [Example 11]	< 10 µM	> 10000 M⁻¹ s⁻¹			
O=C(O)C[C@H](NC(=O)[C@@H]1CCCN2C(=O)CC[C@H](NC(=O)c3ccc(CN4CCOCC4)cc3)C(=O)N12)C(=O)COC(=O)c1c(Cl)cccc1Cl [Example 13, [9-(4-(N-Morpholinomethyl)benzoylamino)octahydro-6,10-dioxo-6H-pyridazino[1 ,2a][1,2]diazepine-1-formoyl]-L-aspartic acid 2,6-dichlorobenzoyloxymethyl ketone]	< 10 µM	> 10000 M⁻¹ s⁻¹			
CN(C)Cc1ccc(C(=O)N[C@H]2CCC(=O)N3CCC[C@@H](C(=O)N[C@@H](CC(=O)O)C(=O)COc4cc(C(F)(F)F)nn4-c4ccc(Cl)cc4)N3C2=O)cc1 [Example 1]	< 10 µM	> 10000 M⁻¹ s⁻¹			
CC(C)COC(=O)N[C@H]1CCC(=O)N2CCC[C@@H](C(=O)N[C@@H](CC(=O)O)C(=O)COc3cc(C(F)(F)F)nn3-c3ccc(Cl)cc3)N2C1=O [Example 10]	< 10 µM	> 10000 M⁻¹ s⁻¹			
O=C(O)C[C@H](NC(=O)[C@@H]1CCCN2C(=O)CC[C@H](NC(=O)OCc3ccccc3)C(=O)N12)C(=O)COc1cc(C(F)(F)F)nn1-c1ccccc1 [Example 4]	< 10 µM	> 10000 M⁻¹ s⁻¹			
Antril: The IL-1 receptor antagonist, Antril (Synergen)			decrease in joint swelling and less disease activity	significant antiinflammatory activity	most effective when taken daily
CN(C)Cc1ccc(C(=O)N[C@H]2CCC(=O)N3CCC[C@@H](C(=O)N[C@@H](CC(=O)O)C(=O)COc4cc(C(F)(F)F)nn4-c4ccccn4)N3C2=O)cc1 [Example 25]	< 10 µM	> 10000 M⁻¹ s⁻¹			
O=C(O)C[C@H](NC(=O)[C@@H]1CCCN2C(=O)CC[C@H](NC(=O)c3ccc4[nH]nnc4c3)C(=O)N12)C(=O)COC(=O)c1c(Cl)cccc1Cl [Example 17, [9-(5-Bentriazoylamino)octahydro-6,10-dioxo-6H-pyridazino[1,2a][1,2]diazepine-1-formoyl]-L-aspartic acid 2,6-dichlorobenzoyloxymethyl ketone]	< 10 µM	> 10000 M⁻¹ s⁻¹			
CN1CCN(Cc2ccc(C(=O)N[C@H]3CCC(=O)N4CCC[C@@H](C(=O)N[C@@H](CC(=O)O)C(=O)COC(=O)c5c(Cl)cccc5Cl)N4C3=O)cc2)CC1 [Example 14, [9-(N-[4-(N-Methylpiperazino)methyl]benzoylamino)octahydro-6,10-dioxo-6H-pyridazino [1,2a][1,2]diazepine-1-formoyl]-L-aspartic acid 2,6-dichlorobenzoyloxymethyl ketone]	< 10 µM	> 10000 M⁻¹ s⁻¹			
CCOC(=O)n1nnc2cc(C(=O)N[C@H]3CCC(=O)N4CCC[C@@H](C(=O)N[C@@H](CC(=O)O)C(=O)COC(=O)c5c(Cl)cccc5Cl)N4C3=O)ccc21 [Example 18, [9-(N-Carboethoxy-5-bentriazoylamino)octahydro-6,10-dioxo-6H-pyridazino[1,2 a][1,2]diazepine-1-formoyl]-L-aspartic acid 2,6-dichlorobenzoyloxymethyl ketone]	< 10 µM	> 10000 M⁻¹ s⁻¹			
O=C(O)CCSc1ccc(C(=O)N[C@H]2CCC(=O)N3CCC[C@@H](C(=O)N[C@@H](CC(=O)O)C(=O)COc4cc(C(F)(F)F)nn4-c4ccc(Cl)cc4)N3C2=O)cc1 [Example 9]	< 10 µM	> 10000 M⁻¹ s⁻¹			
O=C(O)C[C@H](NC(=O)[C@@H]1CCCN2C(=O)CC[C@H](NC(=O)c3ccccc3)C(=O)N12)C(=O)COc1cc(C(F)(F)F)nn1-c1ccc(Cl)cc1 [Example 7]	< 10 µM	> 10000 M⁻¹ s⁻¹			
O=C(O)C[C@H](NC(=O)[C@@H]1CCCN2C(=O)CC[C@H](NC(=O)OCc3ccccc3)C(=O)N12)C(=O)COC(=O)c1c(Cl)cccc1Cl [Example 3]	< 10 µM	> 10000 M⁻¹ s⁻¹			
O=C(O)CSc1ccc(C(=O)N[C@H]2CCC(=O)N3CCC[C@@H](C(=O)N[C@@H](CC(=O)O)C(=O)COc4cc(C(F)(F)F)nn4-c4ccc(Cl)cc4)N3C2=O)cc1 [Example 8]	< 10 µM	> 10000 M⁻¹ s⁻¹			
O=C(O)C[C@H](NC(=O)[C@@H]1CCCN2C(=O)CC[C@H](NC(=O)OCc3ccccc3)C(=O)N12)C(=O)COc1cc(C(F)(F)F)nn1-c1ccc(Cl)cc1 [Example 5]	< 10 µM	> 10000 M⁻¹ s⁻¹			
CCOC(=O)n1cnc2cc(C(=O)N[C@H]3CCC(=O)N4CCC[C@@H](C(=O)N[C@@H](CC(=O)O)C(=O)COC(=O)c5c(Cl)cccc5Cl)N4C3=O)ccc21 [Example 19, [9-(N-Carboethoxy-5-benzimidazoylamino)octahydro-6,10-dioxo-6H-pyridazino[1 ,2a][1,2]diazepine-1-formoyl]-L-aspartic acid 2,6-dichlorobenzoyloxymethyl ketone]	< 10 µM	> 10000 M⁻¹ s⁻¹			
O=C(O)C[C@H](NC(=O)[C@@H]1CCCN2CCC[C@H](NC(=O)OCc3ccccc3)C(=O)N12)C(=O)COC(=O)c1c(Cl)cccc1Cl [Example 23]	< 10 µM	> 10000 M⁻¹ s⁻¹			
Cc1nccn1Cc1ccc(C(=O)N[C@H]2CCC(=O)N3CCC[C@@H](C(=O)N[C@@H](CC(=O)O)C(=O)COC(=O)c4c(Cl)cccc4Cl)N3C2=O)cc1 [Example 15, [9-(4-(N-(2-Methyl)imidazolylmethyl)benzoylamino)octahydro-6,10-dioxo-6H-pyridazino[1,2a][1,2]diazepine-1-formoyl]-L-aspartic acid 2,6-dichlorobenzoyloxymethyl ketone]	< 10 µM	> 10000 M⁻¹ s⁻¹			
O=C(O)CCCc1ccc(C(=O)N[C@H]2CCC(=O)N3CCC[C@@H](C(=O)N[C@@H](CC(=O)O)C(=O)COc4cc(C(F)(F)F)nn4-c4ccc(Cl)cc4)N3C2=O)cc1 [Example 20]	< 10 µM	> 10000 M⁻¹ s⁻¹			

— patent publication US5639745A, “Fused-bicyclic lactams as interleukin-1β converting enzyme inhibitors” (Sanofi, priority 1995, dated 1997)
